Source: patent US20250241974A1, “COMPOSITIONS AND METHODS FOR WOUND HEALING” (University of Maine System Board of Trustees, priority 2024, published 2025)

Tested on: excision wounds
Experiment: Wound healing assay with CNF hydrogel formulation (Example IV)
Assay type: in vivo
Details: citric acid as cross-linking agent

O=C(O)CC(O)(CC(=O)O)C(=O)O [citric acid]
effect on all parameters studied: does not have any effect
